From ChEMBL document CHEMBL5576149, “Discovery of Potent STT3A/B Inhibitors and Assessment of Their Multipathogen Antiviral Potential and Safety” (J Med Chem, 2024)
Values after ≈ are worked out from the molar mass of the structure shown. Active and inactive are the calls of the source. The calls are words filed in the database; no cut-off is given here.

Legend:
[1] = Inhibition of STT3A/STT3B mediated N-linked glycosylation in human H1-HeLa cells stably transduced with ERluc by measuring effective concentration of inhibition incubated for 18 hrs by One-Glo luciferase reporter assay; type: cell-based
[2] = Unbound clearance in human liver microsomes at 0.5 uM incubated upto 45 mins; type: ADME, Microsome; conditions: 0.75 h
[3] = tested on: SARS-CoV-2; test: Antiviral activity against SARS-CoV-2 infected in human A549 cells assessed as reduction in viral growth incubated for 24 hrs by Nano-Glo reagent based analysis; type: functional, organism-based; conditions: Severe acute respiratory syndrome coronavirus 2, A549, 24 h
[4] = Unbound clearance in CD1 mouse at 2 mg/kg,po or 1 mg/kg,iv administrated upto 60 mins by LC-MS/MS analysis; type: ADME, organism-based; conditions: in vivo, 1 h
[5] = tested on: A549; test: Cytotoxicity against human A549 cells; type: functional
[6] = Cytotoxicity against human MRC5 cells by luminescence-based cell viability assay; type: toxicity
[7] = Bioavailability in CD1 mouse at 2 mg/kg,po or 1 mg/kg,iv administrated upto 60 mins by LC-MS/MS analysis; type: ADME, organism-based; conditions: in vivo
[8] = tested on: Influenza A virus; test: Antiviral activity against influenza A virus H1N1 A/Puerto Rico/8/1934 infected in MDCK cells assessed as reduction in viral proliferation incubated for 24 hrs by FFU assay; type: functional, organism-based; conditions: H1N1 A/Puerto Rico/8/1934, MDCK
[9] = tested on: Human coronavirus 229E; test: Antiviral activity against Human coronavirus 229E infected in human MRC5 cells assessed as reduction in viral growth incubated for 68 hrs by CellTiter-Glo luminescence assay; type: functional, organism-based; conditions: MRC5, 68 h
[10] = Volume of distribution at steady state in CD1 mouse at 2 mg/kg,po or 1 mg/kg,iv administrated upto 60 mins by LC-MS/MS analysis; type: ADME, organism-based; conditions: in vivo, 1 h
[11] = Solubility of compound in FaSSIF; type: ADME
[12] = MRT in CD1 mouse at 2 mg/kg,po or 1 mg/kg,iv administrated upto 60 mins by LC-MS/MS analysis; type: ADME, organism-based; conditions: in vivo
[13] = Chromatographic hydrophobicity index, logD of the compound at pH 7.4; type: physicochemical; conditions: buffer
[14] = Unbound clearance in mouse liver microsomes at 0.5 uM incubated upto 45 mins; type: ADME, Microsome; conditions: 0.75 h
[15] = Unbound clearance in rat liver microsomes at 0.5 uM incubated upto 45 mins; type: ADME, Microsome; conditions: 0.75 h
[16] = Cytotoxicity against human Hepatocyte cultured as 3D spheroids incubated for 14 days by CellTiter-Glo luminescence assay; type: toxicity, cell-based; conditions: hepatocytes cultured as 3D spheroids
[17] = tested on: HepG2; test: Selectivity ratio of apparent dissociation constant for binding affinity to STT3A in human HepG2 cells to apparent dissociation constant for binding affinity to STT3B in human HepG2 cells; type: cell-based
[18] = tested on: A549; test: Cytotoxicity against human A549 cells by fluorescent cell imaging assay; type: functional
[19] = tested on: Human respirovirus 3; test: Antiviral activity against Human parainfluenza virus 3 JS infected in human A549 cells assessed as reduction in viral proliferation incubated for 44 hrs by Hoechst dye based fluorescence analysis; type: functional, organism-based; conditions: Human respirovirus 3, JS, A549, 44 h
[20] = tested on: Mus musculus; test: In vivo inhibition of STT3A/STT3B in C57BL/6 mouse assessed as upregulation of SDF2L1 expression in lung at 0.1 to 10 mg/kg,po measured after 6 hrs by RT-qPCR analysis; type: functional, organism-based; conditions: dose 0.1-10 mg/kg
[21] = tested on: Mus musculus; test: In vivo inhibition of STT3A/STT3B in C57BL/6 mouse assessed as upregulation of DERL3 expression in lung at 0.1 to 10 mg/kg,po measured after 6 hrs by RT-qPCR analysis; type: functional, organism-based; conditions: dose 0.1-10 mg/kg
[22] = tested on: Mus musculus; test: In vivo inhibition of STT3A/STT3B in C57BL/6 mouse assessed as upregulation of SDF2L1 expression in blood at 0.1 to 10 mg/kg,po measured after 6 hrs by RT-qPCR analysis; type: functional, organism-based; conditions: dose 0.1-10 mg/kg
[23] = tested on: Mus musculus; test: In vivo inhibition of STT3A/STT3B in C57BL/6 mouse assessed as upregulation of DERL3 expression in blood at 0.1 to 10 mg/kg,po measured after 6 hrs by RT-qPCR analysis; type: functional, organism-based; conditions: dose 0.1-10 mg/kg
[24] = tested on: Mus musculus; test: In vivo inhibition of STT3A/STT3B in C57BL/6 mouse assessed as upregulation of MANF expression in blood at 0.1 to 10 mg/kg,po measured after 6 hrs by RT-qPCR analysis; type: functional, organism-based; conditions: dose 0.1-10 mg/kg
[25] = tested on: Mus musculus; test: In vivo inhibition of STT3A/STT3B in C57BL/6 mouse assessed as upregulation of MANF expression in lung at 0.1 to 10 mg/kg,po measured after 6 hrs by RT-qPCR analysis; type: functional, organism-based; conditions: dose 0.1-10 mg/kg
[26] = Inhibition of STT3A/STT3B mediated N-linked glycosylation in STT3A knockout human H1-HeLa cells stably transduced with Halo3N-ER sequence by measuring effective concentration incubated for 24 hrs by Western blotting analysis; type: cell-based
[27] = tested on: Mus musculus; test: In vivo inhibition of STT3A/STT3B in C57BL/6 mouse assessed as upregulation of […] expression in lung at 0.1 to 10 mg/kg,po measured after 6 hrs by RT-qPCR analysis; type: functional, organism-based; conditions: dose 0.1-10 mg/kg
[28] = tested on: Mus musculus; test: In vivo inhibition of STT3A/STT3B in C57BL/6 mouse assessed as upregulation of […] expression in blood at 0.1 to 10 mg/kg,po measured after 6 hrs by RT-qPCR analysis; type: functional, organism-based; conditions: dose 0.1-10 mg/kg
[29] = Inhibition of STT3A/STT3B mediated N-linked glycosylation in STT3B knockout human H1-HeLa cells stably transduced with Halo3N-ER sequence by measuring effective concentration incubated for 24 hrs by Western blotting analysis; type: cell-based
[30] = MRT in Wistar Han rat at 2 mg/kg,po or 1 mg/kg,iv administrated upto 60 mins by LC-MS/MS analysis; type: ADME, organism-based; conditions: in vivo
[31] = Volume of distribution at steady state in Wistar Han rat at 2 mg/kg,po or 1 mg/kg,iv administrated upto 60 mins by LC-MS/MS analysis; type: ADME, organism-based; conditions: in vivo, 1 h
[32] = tested on: Influenza A virus; test: Antiviral activity against influenza A virus H1N1 A/Puerto Rico/8/1934 infected in MDCK cells assessed as reduction in viral replication measured after 30 hrs of post-infection by RT-qPCR analysis relative to control; type: functional; design: scale not given: the % may be the effect or the level left
[33] = tested on: H1-HeLa; test: Inhibition of STT3A/STT3B in human H1-HeLa cells assessed as upregulation of […] gene expression incubated for 24 hrs; type: cell-based
[34] = Bioavailability in Wistar Han rat at 2 mg/kg,po or 1 mg/kg,iv administrated upto 60 mins by LC-MS/MS analysis; type: ADME, organism-based; conditions: in vivo
[35] = tested on: H1-HeLa; test: Inhibition of STT3A/STT3B in human H1-HeLa cells assessed as upregulation of SDF2L1 gene expression incubated for 24 hrs; type: cell-based
[36] = Unbound clearance in Wistar Han rat at 2 mg/kg,po or 1 mg/kg,iv administrated upto 60 mins by LC-MS/MS analysis; type: ADME, organism-based; conditions: in vivo, 1 h
[37] = tested on: Influenza A virus; test: Antiviral activity against influenza A virus H1N1 A/Puerto Rico/8/1934 infected in MDCK cells assessed as reduction in viral replication measured after 3 hrs of post-infection by RT-qPCR analysis relative to control; type: functional; design: scale not given: the % may be the effect or the level left
[38] = tested on: H1-HeLa; test: Inhibition of STT3A/STT3B in human H1-HeLa cells assessed as upregulation of MANF gene expression incubated for 24 hrs; type: cell-based
[39] = tested on: H1-HeLa; test: Inhibition of STT3A/STT3B in human H1-HeLa cells assessed as upregulation of DERL3 gene expression incubated for 24 hrs; type: cell-based

Compound `CN(C)S(=O)(=O)c1ccc(N2CCCC2)c(C(=O)Nc2ncc(C3CC3)s2)c1` has an EC50 [1] of 332 nM.
For `CCS(=O)(=O)c1ccc(N2CC[C@H](O)C2)c(-c2cc3ccccc3[nH]2)c1`, the CL free [2] was less than 19 mL/min/kg, the EC50 [3] was 116 nM and the CL free [4] was 706 mL/min/kg. For the same compound, the CC50 [5] was 3800 nM, the CC50 [6] was 4110 nM and the bioavailability [7] was 33%. The EC50 [1] was 36 nM, the EC50 [8] was 307 nM and the EC50 [9] was 58 nM. For the same compound, the Vdss [10] was 2.7 L/kg, the solubility [11] was 130 µg/mL (≈ 351 µM) and the MRT [12] was 1.4 h. For the same compound, the chromatographic logD [13] was 4.3 and the CL free [14] was less than 49 mL/min/kg.
With `CN(C)S(=O)(=O)c1ccc(N2CCCC2)c(-c2cc3ccc(F)cc3[nH]2)c1` the EC50 [1] was 62 nM.
`O=C([C@H]1CCN1S(=O)(=O)c1ccc(N2CCC(F)(F)C2)c(-c2cc3ccccc3[nH]2)c1)N1CCOCC1` gave an EC50 [1] of 615 nM, a CL free [15] of 3480 mL/min/kg and a chromatographic logD [13] of 5.3. The IC50 at 14 days [16] was 2500 nM.
In the case of `CN(C)S(=O)(=O)c1ccc(N2CC[C@@H](O)C2)c(-c2cc3ccccc3[nH]2)c1`, the CL free [2] is reported as 160 mL/min/kg, the EC50 [1] is reported as 513 nM and the CL free [15] is reported as 1795 mL/min/kg. The chromatographic logD [13] was 4.8 and the IC50 at 14 days [16] was 6300 nM.
With `Cc1ccc2cc(-c3cc(S(=O)(=O)N(C)CC(=O)NCCC4(CCNC(=O)O[C@@H]5CC/C=C/CCC5)N=N4)ccc3N3CCCC3)[nH]c2c1` the EC50 [1] was 827 nM.
`Cc1ccc2cc(-c3cc(S(=O)(=O)N(C)CC(=O)N4CCOC[C@@H]4C)ccc3N3CCCC3)[nH]c2c1` gave a Selectivity ratio [17] of 10, a CC50 [6] of 199 nM and an EC50 [1] of 1 nM. It also gave a CC50 [18] of 57 nM, an EC50 [9] of 5 nM and an EC50 [19] of 12 nM.
For `Cc1ccc2[nH]c(-c3cc(S(=O)(=O)N(C)C)ccc3N3CCCC3)cc2c1`, the EC50 [1] was 32 nM.
With `C[S@@](=N)(=O)c1ccc(N2CC[C@H](O)C2)c(-c2cc3ccccc3[nH]2)c1` the inhibition [20] was “Active”, the CL free [2] was less than 12 mL/min/kg and the CL free [4] was 38 mL/min/kg. For the same compound, the bioavailability [7] was 62%, the EC50 [1] was 15 nM and the inhibition [21] was “Active”. The inhibition [22] was “Active”, the inhibition [23] was “Active” and the Vdss [10] was 2 L/kg. The inhibition [24] was “Active”, the inhibition [25] was “Active” and the EC50 [26] was 28 nM. For the same compound, the inhibition [27] was “Active”, the solubility [11] was 767 µg/mL (≈ 2160 µM) and the MRT [12] was 3 h. For the same compound, the inhibition [28] was “Active”, the chromatographic logD [13] was 2.7 and the EC50 [29] was 10 nM. For the same compound, the CL free [14] was 30 mL/min/kg and the IC50 at 14 days [16] was less than 1200 nM.
For `CN(C)S(=O)(=O)c1ccc(N2CCCC2)c(-c2cc3ccccc3[nH]2)c1`, the MRT [30] was 0.7 h, the CL free [2] was 303 mL/min/kg and the Vdss [31] was 5.7 L/kg. The EC50 [3] was 34 nM, the CL free [4] was 61467 mL/min/kg and the Activity [32] was 60%. The inhibition [33] was “Active”, the CC50 [5] was 590 nM and the CC50 [6] was 688 nM. For the same compound, the bioavailability [7] was 2%, the EC50 [1] was 21 nM and the bioavailability [34] was 0%. The inhibition [35] was “Active”, the EC50 [8] was 152 nM and the CC50 [18] was 661 nM. The CL free [36] was 102538 mL/min/kg, the Activity [37] was greater than 90% and the CL free [15] was 23136 mL/min/kg. The EC50 [9] was 25 nM, the Vdss [10] was 6 L/kg and the EC50 [19] was 9 nM. For the same compound, the inhibition [38] was “Active”, the EC50 [26] was 34 nM and the solubility [11] was less than 1 µg/mL. The MRT [12] was 0.9 h, the chromatographic logD [13] was 7 and the EC50 [29] was 36 nM. The inhibition [39] was “Active”.
Work on `C[S@](=N)(=O)c1ccc(N2CC[C@H](O)C2)c(-c2cc3ccccc3[nH]2)c1` yielded a CL free [2] of less than 12 mL/min/kg, an EC50 [1] of 279 nM and a chromatographic logD [13] of 2.7.
With `CN(C)S(=O)(=O)c1ccc(N2CCCC2)c(C(=O)Nc2ccccc2)c1` the EC50 [1] was 5010 nM.
